From US20050176784A1, “Malononitrile compounds and their use as pesticides” (priority 2002, published 2005)

Key:
Assay type in all cases: in vivo
Blattella germanica = assay: Test Example 4: filter paper with sucrose bait, Blattella germanica imagoes; conditions: 144 h, 0.7 ml on filter paper, two male imagoes, after 6 days, read-out: rate of dead pests
Procedure: The formulation obtained according to Formulation Example 5 using the present invention compounds (1), (4), (8), (9), (11), (12), (13) and (14) respectively, was diluted with water so that the active ingredient concentration came to 500 ppm to prepare a pesticidal solution for test.
(§1) On the bottom of a polyethylene cup having a diameter of 5.5 cm, a filter paper having the same diameter was laid, and 0.7 ml of the above pesticidal solution for test was added dropwise on the filter paper, followed by putting 30 mg of sucrose on it uniformly as a bait. Two male Blattella germanica imagoes were set free in the polyethylene cup and covered it with a lid. After 6 days, the number of surviving Blattella germanica was examined and the rate of dead pests was calculated.

Musca domestics = assay: Test Example 3: filter paper with sucrose bait, Musca domestica imagoes; conditions: 0.7 ml on filter paper, ten female imagoes, after 24 hours, read-out: rate of dead pests
Procedure: The formulation obtained according to Formulation Example 5 using the present invention compounds (1), (2), (4), (8), (9), (10), (11), (13), (14) and (15) respectively, was diluted with water so that the active ingredient concentration came to 500 ppm to prepare a pesticidal solution for test.
as §1, with “Ten female Musca domestics” for “Two male Blattella germanica”, “24 hours,” for “6 days,”, “Musca domestics” for “Blattella germanica”

Culex pipiens pallens = assay: Test Example 5: larvae in treated water, Culex pipiens pallens; conditions: 24 h, active ingredient concentration 3.5 ppm in water, twenty last-instar larvae, after one day, read-out: rate of dead pests
Procedure: The formulation obtained according to Formulation Example 5 using the present invention compounds (3), (4), (8), (9), (10), (11), (12), (13), (14) and (15) respectively, was diluted with water so that the active ingredient concentration came to 500 ppm to prepare a pesticidal solution for test. 0.7 ml of above pesticidal solution for test was added to 100 ml of ion exchanged water (active ingredient concentration: 3.5 ppm). Twenty last-instar larvae of Culex pipiens pallens were set free in the solution. After one day, the number of surviving Culex pipiens pallens was examined and the rate of dead pests was calculated.

| SMILES | pest or weed control at 500 ppm (Blattella germanica) | pest or weed control at 500 ppm (Musca domestics) | pest or weed control at 3.5 ppm (Culex pipiens pallens) |
| --- | --- | --- | --- |
| C=CCC(C#N)(C#N)Cc1ccc(Cl)nc1 [Compound 1, 2-allyl-2-((6-Chloro-3-pyridyl)methyl)malononitrile] | 100% | ≥ 90% |  |
| N#CC(C#N)(CCC(F)(F)F)Cc1ccc(F)nc1 [Compound 13, 2-((6-fluoro-3-pyridyl)methyl)-2-(3,3,3-trifluoropropyl)malononitrile] | 100% | ≥ 90% | 100% |
| N#CC(C#N)(CCC(F)(F)F)Cc1ccc(C(F)(F)F)nc1 [Compound 9, 2-((6-(trifluoromethyl)-3-pyridyl)methyl)-2-(3,3,3-trifluoropropyl)malononitrile] | 100% | ≥ 90% | 100% |
| N#CC(C#N)(CCC(F)(F)F)Cc1cccc(Cl)n1 [Compound 8, 2-((6-chloro-2-pyridyl)methyl)-2-(3,3,3-trifluoropropyl)malononitrile] | 100% | ≥ 90% | 100% |
| N#CC(C#N)(CCC(F)(F)F)Cc1ccc(Br)nc1 [Compound 10, 2-((6-bromo-3-pyridyl)methyl)-2-(3,3,3-trifluoropropyl)malononitrile] |  | ≥ 90% | 100% |
| N#CC(C#N)(CCC(F)(F)F)Cc1cccc(Br)n1 [Compound 14, 2-((6-bromo-2-pyridyl)methyl)-2-(3,3,3-trifluoropropyl)malononitrile] | 100% | ≥ 90% | 100% |
| N#CC(C#N)(CCC(F)(F)F)Cc1ccc(Cl)nc1 [Compound 4, 2-((6-Chloro-3-pyridyl)methyl)-2-(3,3,3-trifluoropropyl)malononitrile] | 100% | ≥ 90% | 100% |
| C#Cc1ccc(CC(C#N)(C#N)CCC(F)(F)F)cn1 [Compound 11, 2-((6-ethynyl-3-pyridyl)methyl)-2-(3,3,3-trifluoropropyl)malononitrile] | 100% | ≥ 90% | 100% |
| N#CC(C#N)(CCC(F)=C(F)F)Cc1ccc(Cl)nc1 [Compound 3, 2-((6-Chloro-3-pyridyl)methyl)-2-(3,4,4-trifluoro-3-butenyl)malononitrile] |  |  | 100% |
| N#Cc1ccc(CC(C#N)(C#N)CCC(F)(F)F)cn1 [Compound 12, 2-((6-cyano-3-pyridyl)methyl)-2-(3,3,3-trifluoropropyl)malononitrile] | 100% |  | 100% |
| N#CC(C#N)(CCC(F)(F)F)Cc1cnc(Cl)c(Cl)c1 [Compound 15, 2-((5,6-dichloro-3-pyridyl)methyl)-2-(3,3,3-trifluoropropyl)malononitrile] |  | ≥ 90% | 100% |
| C=CCC(C#N)(C#N)C(C#N)c1ccc(Cl)nc1 (stereo not shown) [Compound 2, 1-(6-Chloro-3-pyridyl)-1,2,2-tricyano-4-pentene] |  | ≥ 90% |  |
